Tests used:
Androgen receptor [1] = biological target: T1, Androgen receptor (Homo sapiens, UniProt P10275); test: Antagonist activity at DHT-induced Androgen receptor in human LNCaP cells transfected with ARR2PB-eGFP incubated for 3 days; format: cell-based
T1 sequence (P10275 whole entry): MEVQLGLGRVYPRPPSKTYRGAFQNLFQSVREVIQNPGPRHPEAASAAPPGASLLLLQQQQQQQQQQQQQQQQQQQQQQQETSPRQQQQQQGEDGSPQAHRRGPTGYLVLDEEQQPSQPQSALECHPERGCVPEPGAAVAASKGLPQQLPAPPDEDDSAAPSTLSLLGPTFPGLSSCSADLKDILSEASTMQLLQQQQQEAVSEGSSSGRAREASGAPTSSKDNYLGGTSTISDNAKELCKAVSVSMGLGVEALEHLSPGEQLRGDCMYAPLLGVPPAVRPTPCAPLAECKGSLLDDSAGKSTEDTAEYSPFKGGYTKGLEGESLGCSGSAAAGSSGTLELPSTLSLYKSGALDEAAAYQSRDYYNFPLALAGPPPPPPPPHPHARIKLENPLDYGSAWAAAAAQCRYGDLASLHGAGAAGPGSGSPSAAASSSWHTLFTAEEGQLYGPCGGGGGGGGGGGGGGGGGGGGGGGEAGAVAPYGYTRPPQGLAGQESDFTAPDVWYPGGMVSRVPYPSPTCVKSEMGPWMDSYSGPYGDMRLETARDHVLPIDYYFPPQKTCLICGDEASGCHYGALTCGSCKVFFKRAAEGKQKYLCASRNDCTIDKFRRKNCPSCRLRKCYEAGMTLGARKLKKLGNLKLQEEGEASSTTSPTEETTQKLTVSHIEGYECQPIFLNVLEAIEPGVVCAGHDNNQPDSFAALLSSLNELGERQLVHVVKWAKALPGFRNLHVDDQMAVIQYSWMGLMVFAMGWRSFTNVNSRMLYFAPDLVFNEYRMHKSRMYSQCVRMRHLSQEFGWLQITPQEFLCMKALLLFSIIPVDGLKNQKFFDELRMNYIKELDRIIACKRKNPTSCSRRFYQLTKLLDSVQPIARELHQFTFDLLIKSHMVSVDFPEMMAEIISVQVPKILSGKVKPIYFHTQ

GES1 = test: (§1) Antiproliferative activity against human GES1 cells incubated for 72 hrs by MTT assay; format: toxicity, cell-based; details: ges1, 72 h, time 72 hrs
[2] = AUC (0 to t) in Sprague-Dawley rat at 5 mg/kg, po; format: ADME, organism-based; details: in vivo
[3] = Clearance in Sprague-Dawley rat at 5 mg/kg, po; format: ADME, organism-based; details: in vivo
[4] = Apparent volume of distribution in Sprague-Dawley rat at 5 mg/kg, po; format: ADME, organism-based; details: in vivo
[5] = Cmax in Sprague-Dawley rat at 5 mg/kg, po; format: ADME, organism-based; details: in vivo
[6] = Half life in Sprague-Dawley rat at 5 mg/kg, po; format: ADME, organism-based; details: in vivo
[7] = Oral bioavailability in Sprague-Dawley rat at 5 mg/kg; format: ADME, organism-based; details: in vivo
[8] = AUC (0 to t) in Sprague-Dawley rat at 1 mg/kg, iv; format: ADME, organism-based; details: in vivo
[9] = Clearance in Sprague-Dawley rat at 1 mg/kg, iv; format: ADME, organism-based; details: in vivo
[10] = Apparent volume of distribution in Sprague-Dawley rat at 1 mg/kg, iv; format: ADME, organism-based; details: in vivo, read-out: Vz
[11] = Cmax in Sprague-Dawley rat at 1 mg/kg, iv; format: ADME, organism-based; details: in vivo
[12] = Half life in Sprague-Dawley rat at 1 mg/kg, iv; format: ADME, organism-based; details: in vivo
NIH3T3 = test: Antiproliferative activity against mouse NIH3T3 cells incubated for 72 hrs by MTT assay; format: toxicity, cell-based; details: nih3t3, 72 h
[13] = Antiproliferative activity against human Chang liver cells incubated for 72 hrs by MTT assay; format: toxicity, cell-based
Androgen receptor [14] = biological target: Androgen receptor (Homo sapiens, UniProt P10275, F877L/T878A); test: Antagonist activity at DHT-induced Androgen receptor F876L/[…] mutant in human PC-3 cells transfected with ARR2PB-Luc by Dual-Luciferase Reporter assay; format: cell-based
Androgen receptor (Homo sapiens, UniProt P10275, F877L/T878A), sequence (P10275 whole entry F877L/T878A): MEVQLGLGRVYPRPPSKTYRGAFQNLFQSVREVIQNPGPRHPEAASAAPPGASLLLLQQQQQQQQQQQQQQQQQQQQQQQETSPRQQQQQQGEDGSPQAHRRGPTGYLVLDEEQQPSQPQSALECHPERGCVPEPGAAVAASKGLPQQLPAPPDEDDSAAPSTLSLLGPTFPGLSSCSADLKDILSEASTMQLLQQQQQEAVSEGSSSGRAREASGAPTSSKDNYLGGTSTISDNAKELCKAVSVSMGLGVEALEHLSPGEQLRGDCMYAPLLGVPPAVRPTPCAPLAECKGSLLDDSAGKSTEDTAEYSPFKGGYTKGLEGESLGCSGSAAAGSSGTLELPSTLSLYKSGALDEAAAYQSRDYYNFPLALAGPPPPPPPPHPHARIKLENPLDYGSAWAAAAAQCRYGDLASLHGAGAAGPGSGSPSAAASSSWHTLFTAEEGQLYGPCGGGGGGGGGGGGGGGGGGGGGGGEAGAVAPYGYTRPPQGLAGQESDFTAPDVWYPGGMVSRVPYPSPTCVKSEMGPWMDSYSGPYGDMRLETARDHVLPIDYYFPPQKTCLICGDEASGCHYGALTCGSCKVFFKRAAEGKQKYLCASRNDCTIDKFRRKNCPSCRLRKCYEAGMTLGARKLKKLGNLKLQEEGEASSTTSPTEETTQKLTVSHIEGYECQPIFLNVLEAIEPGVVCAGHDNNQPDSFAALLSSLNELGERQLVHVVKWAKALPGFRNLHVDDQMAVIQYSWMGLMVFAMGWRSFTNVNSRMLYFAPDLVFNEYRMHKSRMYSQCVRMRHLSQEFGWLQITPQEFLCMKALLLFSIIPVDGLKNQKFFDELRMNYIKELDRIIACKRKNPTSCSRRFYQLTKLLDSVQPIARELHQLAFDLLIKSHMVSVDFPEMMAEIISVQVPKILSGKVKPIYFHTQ

Androgen receptor [15] = biological target: Androgen receptor (Homo sapiens, UniProt P10275, W742C); test: Antagonist activity at DHT-induced Androgen receptor W741C mutant in human PC-3 cells transfected with ARR2PB-Luc by Dual-Luciferase Reporter assay; format: cell-based
Androgen receptor (Homo sapiens, UniProt P10275, W742C), sequence (P10275 whole entry W742C): as the sequence (P10275 whole entry F877L/T878A) above, with W742C, L877F, A878T counted along it

[16] = Toxicity in CB17 SCID mouse model xenografted with human LNCaP cells assessed as drug tolerance at 60 mg/kg, po bid for 32 days; format: organism-based; details: in vivo, 768 h, time 32 day
[17] = Toxicity in CB17 SCID mouse model xenografted with human LNCaP cells assessed as body weight loss at 60 mg/kg, po bid for 32 days; format: organism-based; details: in vivo, 768 h, time 32 day
[18] = Toxicity in CB17 SCID mouse model xenografted with human LNCaP cells assessed as signs of toxicity at 60 mg/kg, po bid for 32 days; format: organism-based; details: in vivo, 768 h, time 32 day
LNCaP = test: Antiproliferative activity against androgen dependent-human LNCaP cells incubated for 72 hrs by MTT assay
LNCaP C4-2B = test: Antiproliferative activity against androgen independent-human LNCaP C4-2B cells incubated for 72 hrs by MTT assay
CWR22R = test: Antiproliferative activity against androgen independent-human 22Rv1 cells incubated for 72 hrs by MTT assay; details: 22Rv1, 72 h
PC-3 = test: Antiproliferative activity against androgen independent-human PC-3 cells incubated for 72 hrs by MTT assay; details: PC-3, 72 h
DU-145 = test: Antiproliferative activity against androgen independent-human DU-145 cells incubated for 72 hrs by MTT assay; details: DU-145, 72 h
[19] = as §1; format: toxicity, cell-based; details: GES1 cells
[20] = Inhibition of DHT-induced secreted PSA production in human LNCaP cells
[21] = biological target: T2, Mineralocorticoid receptor (Homo sapiens, UniProt P08235); test: Antagonist activity at aldosterone-induced Mineralocorticoid receptor (unknown origin) transfected in HEK293T cells by Dual-Luciferase Reporter assay
T2 sequence (P08235 whole entry): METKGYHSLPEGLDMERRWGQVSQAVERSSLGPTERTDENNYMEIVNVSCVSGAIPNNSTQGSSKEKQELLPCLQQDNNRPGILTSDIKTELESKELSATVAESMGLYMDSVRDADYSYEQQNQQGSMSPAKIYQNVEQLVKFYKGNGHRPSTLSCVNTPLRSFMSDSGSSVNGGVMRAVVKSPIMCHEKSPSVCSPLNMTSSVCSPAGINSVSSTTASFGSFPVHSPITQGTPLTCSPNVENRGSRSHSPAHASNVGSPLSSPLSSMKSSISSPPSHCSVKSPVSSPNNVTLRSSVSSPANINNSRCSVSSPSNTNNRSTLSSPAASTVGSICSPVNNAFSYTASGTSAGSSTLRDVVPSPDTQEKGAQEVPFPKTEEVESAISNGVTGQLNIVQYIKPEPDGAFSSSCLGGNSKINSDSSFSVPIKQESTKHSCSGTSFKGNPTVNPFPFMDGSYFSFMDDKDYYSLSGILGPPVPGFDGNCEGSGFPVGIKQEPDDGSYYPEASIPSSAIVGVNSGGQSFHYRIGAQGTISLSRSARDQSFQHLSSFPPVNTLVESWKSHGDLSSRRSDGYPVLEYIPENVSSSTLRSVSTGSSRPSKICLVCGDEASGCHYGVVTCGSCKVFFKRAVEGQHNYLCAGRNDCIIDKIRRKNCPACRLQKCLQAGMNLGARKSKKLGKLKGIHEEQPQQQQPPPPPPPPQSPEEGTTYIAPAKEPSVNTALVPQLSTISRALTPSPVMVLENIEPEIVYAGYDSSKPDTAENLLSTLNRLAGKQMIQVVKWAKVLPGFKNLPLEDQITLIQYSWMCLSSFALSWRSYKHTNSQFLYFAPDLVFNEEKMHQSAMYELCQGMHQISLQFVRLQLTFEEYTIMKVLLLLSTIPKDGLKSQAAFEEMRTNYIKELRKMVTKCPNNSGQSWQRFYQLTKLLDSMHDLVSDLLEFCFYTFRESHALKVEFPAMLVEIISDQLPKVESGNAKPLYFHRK

O=c1cc(C(F)(F)F)c2ccc(NCc3ccc(O)cc3)cc2o1
IC50 (Androgen receptor [1]): 640 nM

O=c1cc(C(F)(F)F)c2ccc(NCc3ccccc3Br)cc2o1
IC50 (Androgen receptor [1]): 100 nM

CN(Cc1ccc(F)cc1)c1ccc2c(C(F)(F)F)cc(=O)oc2c1
IC50 (Androgen receptor [1]): 51 nM
Activity (GES1): Non-Toxic
AUC(0-t) [2]: 1410 ng·h/mL
CL/F [3]: 58.5 mL/min/kg
Vz [4]: 24.6 L/kg
Cmax [5]: 353 ng/mL
half-life [6]: 289 min
bioavailability [7]: 66.2%
AUC(0-t) [8]: 426 ng·h/mL
clearance [9]: 41 mL/min/kg
Vd [10]: 1.81 L/kg
Cmax [11]: 1060 ng/mL
half-life [12]: 30 min
Activity (NIH3T3): Non-Toxic
Activity [13]: Non-Toxic
IC50 (Androgen receptor [14]): 170 nM
IC50 (Androgen receptor [15]): 160 nM
Activity [16]: Non-Toxic
Activity [17]: Non-Toxic
Activity [18]: Non-Toxic

O=C(Nc1ccc2c(C(F)(F)F)cc(=O)oc2c1)c1ccc(Br)cc1
IC50 (Androgen receptor [1]): > 10000 nM

O=c1cc(C(F)(F)F)c2ccc(NCc3ccc(Br)c(F)c3)cc2o1
IC50 (Androgen receptor [1]): 69 nM

O=c1cc(C(F)(F)F)c2ccc(NCc3ccc(Cl)cc3)cc2o1
AUC(0-t) [2]: 103 ng·h/mL
Cmax [5]: 258 ng/mL
bioavailability [7]: 13%
AUC(0-t) [8]: 158 ng·h/mL
clearance [9]: 97.7 mL/min/kg
Vd [10]: 2.3 L/kg
Cmax [11]: 395 ng/mL
half-life [12]: 16.2 min

O=c1cc(C(F)(F)F)c2ccc(NCc3ccc(F)cc3)cc2o1
IC50 (Androgen receptor [1]): 24 nM
IC50 (LNCaP): 1.9 µM
IC50 (LNCaP C4-2B): 4.91 µM
IC50 (CWR22R): 24.2 µM
IC50 (PC-3): 21.3 µM
IC50 (DU-145): 6.32 µM
IC50 at 72 h [19]: 16 µM
AUC(0-t) [2]: 4.09 ng·h/mL
Cmax [5]: 10.8 ng/mL
bioavailability [7]: 2.5%
AUC(0-t) [8]: 32.4 ng·h/mL
clearance [9]: 507 mL/min/kg
Vd [10]: 9.26 L/kg
Cmax [11]: 82.1 ng/mL
half-life [12]: 12.6 min

CCN(Cc1ccc(F)cc1)c1ccc2c(C(F)(F)F)cc(=O)oc2c1
IC50 (Androgen receptor [1]): 83 nM

O=c1cc(C(F)(F)F)c2ccc(NCc3ccc(Br)cc3)cc2o1
IC50 (Androgen receptor [1]): 42 nM

O=c1cc(C(F)(F)F)c2cc([N+](=O)[O-])c(OCc3ccc(Br)cc3)cc2o1
IC50 (Androgen receptor [1]): > 10000 nM

CCN(Cc1cc(F)ccc1F)c1ccc2c(C(F)(F)F)cc(=O)oc2c1
IC50 (Androgen receptor [1]): 430 nM

O=c1cc(C(F)(F)F)c2ccc(NCc3ccc(C(F)(F)F)cc3)cc2o1
IC50 (Androgen receptor [1]): 110 nM

O=c1cc(C(F)(F)F)c2cc(N(CC(F)(F)F)CC(F)(F)F)c(OCc3ccc(Br)cc3)cc2o1
IC50 (Androgen receptor [1]): > 10000 nM

CNC(=O)c1ccc(N2C(=S)N(c3ccc(C#N)c(C(F)(F)F)c3)C(=O)C2(C)C)cc1F [ENZALUTAMIDE]
IC50 (LNCaP): 23.3 µM
IC50 (CWR22R): > 50 µM
IC50 (PC-3): > 50 µM
IC50 at 72 h [19]: > 50 µM
Activity (GES1): Non-Toxic
IC50 [20]: 420 nM

C[C@]12CCC(=O)C[C@@H]1CC[C@@H]1[C@@H]2CC[C@]2(C)[C@@H](O)CC[C@@H]12 [STANOLONE]
IC50 [21]: 1.24 nM
